These results are taken from article PMC9000499, “New Triazolyl N^N Bidentate Rh(III), Ir(III), Ru(II) and Os(II) Complexes: Synthesis and Characterization, Probing Possible Relations between Cytotoxicity with Transfer Hydrogenation Efficacy and Interaction with Model Biomolecules” (Molecules, 2022).

The test system of one test is lung cancer cells (A549). As to the kind of experiment: MTS in vitro cytotoxicity assay, A549. It counts as cell-based. Particulars: mean ± SD n = 6. The text has this:
(§1) The absorbance is directly proportional to cell viability.

A short description of test [1]: MTS in vitro cytotoxicity assay, HEK293. It counts as cell-based. Particulars: MTS assay, 96 h exposure, mean ± SD n = 6.
Excerpt: as §1
On the technique in general: Tetrazolium dyes change colour on reduction, which living cells bring about.

Test [2] has as its system kidney cancer cells (HEK293). As to the kind of experiment: MTS in vitro cytotoxicity assay, HEK293. The settings on record: EC50 against BHK21 divided by EC50 against HEK293. It counts as cell-based.
Excerpt: as §1

Test [3] has as its system cervical cancer cells (Hela). As to the kind of experiment: MTS in vitro cytotoxicity assay, Hela. Particulars: 96 h exposure, mean ± SD n = 6; for EC50: Homo sapiens, HeLa. It counts as cell-based.
Excerpt: as §1

In another test the test system is Lymphoma cells (MT4). As to the kind of experiment: MTS in vitro cytotoxicity assay, MT4. It is filed as cell-based. Particulars: 96 h exposure, mean ± SD n = 6.
Excerpt: as §1

Test [4] relates to normal kidney cells (BHK21). As to the kind of experiment: MTS in vitro cytotoxicity assay, BHK21. It is filed as cell-based. Particulars: mean ± SD n = 6; for EC50: Mesocricetus auratus, BHK-21, 96 h exposure.
Excerpt: as §1

In test [5] the test system is all the tested cell lines (Hela, HEK293, BHK21, MT4, A549). Particulars: summary over all tested cell lines, MTS assay. As to the method: An MTS (3-(4,5-dimethylthiazol-2-yl)-5-(3-carboxymethoxy-phenyl)-2-(4-sulfophenyl)-2H-tetrazolium) in vitro cytotoxicity assay was conducted to determine change in cell viability using a colour change. The MTS compound (yellow) is metabolised by viable cells to form a dark purple coloured compound, visible through UV-Vis spectroscopy at 490 nm. The absorbance is directly proportional to cell viability. Samples were tested across three plates in duplicate (n = 6), and the average value was reported.
HeLa (cervical cancer cells), Hek293 (kidney cancer cells), BHK21 (normal kidney cells), MT4 (lymphoma cells) and A549 (lung cancer cells) were grown using standard tissue culture techniques. The cells (1 × 10^5 cells/mL) were incubated in 96-well plates at 37 °C overnight, with the subsequent addition of the supplied compounds, at concentrations (100 µg/mL, 50.0 µg/mL, 25.0 µg/mL, 12.5 µg/mL, 6.25 µg/mL, 3.125 µg/mL and 0 µg/mL). The cells were left to incubate for four days, after which MTS (5 µL) was added to the cells. The absorbance values were measured at 490 nm after 1 h, 2 h and 4 h incubation periods, averaged, and the viability curves were drawn up.

The mark [6] stands for this setting: Homo sapiens, A549, 96 h exposure.

On to `c1ccc(Cn2cc(-c3ccccn3)nn2)cc1` [Complex L1, 2-(1-Benzyl-1H-1,2,3-triazol-4-yl)pyridine], for which the EC50 in the test on lung cancer cells (A549) (setting [6]) was above 1300 µM; in test [1] (Homo sapiens, HEK293), above 1300 µM; in test [3] it was 168 ± 31 µM; with Lymphoma cells (MT4), above 1300 µM; in test [4], above 1300 µM. In test [2], the “SI (selectivity index)” value was at most 1.

Turning to `c1ccc(Cn2cc(-c3ccccn3)nn2)nc1` [Complex L2, 2-((4-(Pyridin-2-yl)-1H-1,2,3-triazol-1-yl)methyl)pyridine], the EC50 with lung cancer cells (A549) (setting [6]) is above 1300 µM; in test [1] (Homo sapiens, HEK293), above 1300 µM; in test [3], 1070 ± 134 µM; in test [4], above 1300 µM. Moreover, in test [2], the “SI (selectivity index)” value is reported as at most 1. Moreover, the “EC50 MT4” value in the test with Lymphoma cells (MT4) was “N.R”.

Regarding `Cc1ccc(C(C)C)cc1.F[B-](F)(F)F.[Cl-].[Os+2].c1ccc(Cn2cc(-c3ccccn3)nn2)nc1` [Complex C9, [Chlorido(2-((4-(pyridine-2-yl)-(3-κN)-1,2,3-trizol-1-yl)methyl)-(2′-κN)-pyridine)(η^6-p-cymene)osmium(II)] tetrafluoroborate], the EC50 is above 500 µM in the test on lung cancer cells (A549) (96 h exposure) and above 400 µM in test [1]. Besides, in test [3], the “EC50 Hela” value is given as “N.R”. For the same compound, the “EC50 MT4” value in the test on Lymphoma cells (MT4) is “N.R”. Further, the “EC50 BHK21” value in test [4] (96 h exposure) is “N.R”. In test [5], the “EC50 / activity against all the tested cell lines” value is recorded as “not active”.

What is called EC50 is the concentration at which the effect is half-maximal. Lower therefore signals greater potency.
